The subject of one data set is Klebsiella pneumoniae. The experiment in a line: Antimicrobial activity against Klebsiella pneumoniae NCTC 13368 assessed as diameter of growth inhibition zone at 500 ug/ml after 24 hr by cup-plate method. The conditions noted are these: NCTC 13368, 24 h, read-out: DIZ. Format: functional.
Data set [1] can be described thus: Metal chelating activity of the compound assessed as inhibition of ferrozine Fe2+ complex formation at 25 to 100 ug/ml after 10 min by spectrophotometric analysis. Format: physicochemical.
The subject of a further data set is Aspergillus flavus. As to the kind of experiment: Antimicrobial activity against Aspergillus flavus MTCC 1973 assessed as diameter of growth inhibition zone at 500 ug/ml after 72 hr by cup-plate method. Particulars: MTCC 1973, 72 h, read-out: DIZ; call rule not given here. It counts as functional.
In another data set the test system is Aspergillus oryzae. The experiment in a line: Antimicrobial activity against Aspergillus oryzae MTCC 3567 assessed as diameter of growth inhibition zone at 500 ug/ml after 72 hr by cup-plate method. It counts as functional. Particulars: MTCC 3567, 72 h, read-out: DIZ.
For a further data set, the system named is Aspergillus niger. The experiment in a line: Antimicrobial activity against Aspergillus niger MTCC 281 assessed as diameter of growth inhibition zone at 500 ug/ml after 72 hr by cup-plate method. It counts as functional. Particulars: MTCC 281, 72 h, read-out: DIZ.
The subject of another data set is Aspergillus terreus. The experiment in a line: Antimicrobial activity against Aspergillus terreus MTCC 1782 assessed as diameter of growth inhibition zone at 500 ug/ml after 72 hr by cup-plate method. Format: functional. Particulars: MTCC 1782, 72 h, read-out: DIZ.
The test system of another data set is Escherichia coli. As to the kind of experiment: Antimicrobial activity against Escherichia coli MTCC 723 assessed as diameter of growth inhibition zone at 500 ug/ml after 24 hr by cup-plate method. Format: functional. The conditions noted are these: MTCC 723, 24 h, read-out: DIZ.
For a further data set, the system named is Pseudomonas aeruginosa. As to the kind of experiment: Antimicrobial activity against Pseudomonas aeruginosa MTCC 1688 assessed as diameter of growth inhibition zone at 500 ug/ml after 24 hr by cup-plate method. It counts as functional. The conditions noted are these: MTCC 1688, 24 h, read-out: DIZ.
In another data set the test system is Staphylococcus aureus. As to the kind of experiment: Antimicrobial activity against Staphylococcus aureus ATCC 29513 assessed as diameter of growth inhibition zone at 500 ug/ml after 24 hr by cup-plate method. It counts as functional. Particulars: ATCC 29513, 24 h, read-out: DIZ.

For `Nc1n[nH]c2nc(-c3ccc(Cl)cc3)cc(-c3c(-c4ccccc4)[nH]c4ccccc34)c12`, the zone of inhibition at 500 µg/mL in the data set on Klebsiella pneumoniae was 10 mm; in the data set on Aspergillus flavus it was 11 mm; with Aspergillus oryzae, 10 mm; with Aspergillus niger it was 10 mm; in the data set with Aspergillus terreus it was 8 mm; with Escherichia coli it was 10 mm. The zone of inhibition at 500 µg/mL with Pseudomonas aeruginosa is 8 mm; in the data set with Staphylococcus aureus it was 14 mm. Moreover, in [1], the “inhibition (INH)” value is “Active”.
Turning to `Cc1ccc(-c2cc(-c3c(-c4ccccc4)[nH]c4ccc(C)cc34)c3c(N)n[nH]c3n2)cc1`, the zone of inhibition at 500 µg/mL with Klebsiella pneumoniae is 5 mm; with Aspergillus flavus, 11 mm; with Aspergillus oryzae, 3 mm; in the data set on Aspergillus niger, 10 mm; with Aspergillus terreus it was 9 mm; in the data set with Escherichia coli, 10 mm. Besides, the zone of inhibition at 500 µg/mL with Pseudomonas aeruginosa came to 6 mm; in the data set with Staphylococcus aureus it was 11 mm.
On to `Cc1ccc(-c2cc(-c3c(-c4ccccc4)[nH]c4ccccc34)c3c(=O)[nH]cnc3n2)cc1`, for which the zone of inhibition at 500 µg/mL came to 11 mm in the data set with Klebsiella pneumoniae; 5 mm with Aspergillus flavus; 6 mm in the data set on Aspergillus oryzae; 6 mm in the data set on Aspergillus niger; 10 mm with Aspergillus terreus; 10 mm with Escherichia coli. For the same compound, the zone of inhibition at 500 µg/mL in the data set with Pseudomonas aeruginosa worked out at 10 mm; in the data set on Staphylococcus aureus, 8 mm.
Regarding `O=c1[nH]cnc2nc(-c3ccc(Cl)cc3)cc(-c3c(-c4ccccc4)[nH]c4ccccc34)c12`, the zone of inhibition at 500 µg/mL is 8 mm with Klebsiella pneumoniae; 11 mm in the data set on Aspergillus flavus; 10 mm with Aspergillus oryzae; 10 mm in the data set with Aspergillus niger; 11 mm in the data set on Aspergillus terreus; 10 mm in the data set on Escherichia coli. Also, the results for the zone of inhibition at 500 µg/mL in the data set with Pseudomonas aeruginosa and with Staphylococcus aureus were 2 mm and 10 mm, respectively.
For the compound `Cc1ccc(-c2cc(-c3c(-c4ccccc4)[nH]c4ccccc34)c3c(N)n[nH]c3n2)cc1`, the zone of inhibition at 500 µg/mL in the data set with Klebsiella pneumoniae was found to be 9 mm; in the data set with Aspergillus flavus, 8 mm; with Aspergillus oryzae it was 10 mm; in the data set on Aspergillus niger, 5 mm; in the data set on Aspergillus terreus it was 2 mm; in the data set with Escherichia coli it was 10 mm. Further, the zone of inhibition at 500 µg/mL in the data set with Pseudomonas aeruginosa was determined as 9 mm; in the data set on Staphylococcus aureus it was 11 mm.
In the case of `O=c1[nH]cnc2nc(-c3ccccc3)cc(-c3c(-c4ccccc4)[nH]c4ccccc34)c12`, the zone of inhibition at 500 µg/mL in the data set with Klebsiella pneumoniae came out at 10 mm; in the data set with Aspergillus flavus it was 11 mm; in the data set with Aspergillus oryzae, 10 mm; with Aspergillus niger it was 8 mm; in the data set with Aspergillus terreus it was 8 mm; with Escherichia coli it was 10 mm. Further, the zone of inhibition at 500 µg/mL was found to be 10 mm in the data set with Pseudomonas aeruginosa and 2 mm in the data set on Staphylococcus aureus. Also, the “inhibition (INH)” value in [1] was “Active”.
`Cc1ccc2[nH]c(-c3ccccc3)c(-c3cc(-c4ccccc4)nc4nc[nH]c(=O)c34)c2c1`: the zone of inhibition at 500 µg/mL was found to be 9 mm in the data set on Klebsiella pneumoniae; 10 mm with Aspergillus flavus; 8 mm with Aspergillus oryzae; 9 mm in the data set on Aspergillus niger; 10 mm in the data set with Aspergillus terreus; 5 mm in the data set with Escherichia coli. Besides, the zone of inhibition at 500 µg/mL is 10 mm with Pseudomonas aeruginosa and 6 mm in the data set with Staphylococcus aureus.
As to `Cc1ccc2[nH]c(-c3ccccc3)c(-c3cc(-c4ccc(Cl)cc4)nc4ncnc(N)c34)c2c1`, the zone of inhibition at 500 µg/mL was 10 mm in the data set with Klebsiella pneumoniae; 11 mm in the data set with Aspergillus flavus; 8 mm in the data set on Aspergillus oryzae; 10 mm with Aspergillus niger; 5 mm in the data set on Aspergillus terreus; 6 mm with Escherichia coli. Besides, the zone of inhibition at 500 µg/mL came to 11 mm in the data set on Pseudomonas aeruginosa and 8 mm with Staphylococcus aureus.
Turning to `Cc1ccc(-c2cc(-c3c(-c4ccccc4)[nH]c4ccc(Cl)cc34)c3c(N)ncnc3n2)cc1`, the zone of inhibition at 500 µg/mL with Klebsiella pneumoniae came out at 9 mm; in the data set with Aspergillus flavus, 10 mm; in the data set with Aspergillus oryzae it was 5 mm; with Aspergillus niger, 8 mm; in the data set on Aspergillus terreus it was 4 mm; in the data set on Escherichia coli, 9 mm. For the same compound, the figures for the zone of inhibition at 500 µg/mL with Pseudomonas aeruginosa and in the data set with Staphylococcus aureus were 9 mm and 10 mm, respectively.
In the case of `Nc1n[nH]c2nc(-c3ccccc3)cc(-c3c(-c4ccccc4)[nH]c4ccc(Cl)cc34)c12`, the zone of inhibition at 500 µg/mL with Klebsiella pneumoniae came to 13 mm; in the data set with Aspergillus flavus, 10 mm; in the data set with Aspergillus oryzae, 10 mm; with Aspergillus niger it was 5 mm; with Aspergillus terreus it was 14 mm; with Escherichia coli, 8 mm. Also, the zone of inhibition at 500 µg/mL in the data set with Pseudomonas aeruginosa turned out to be 5 mm; in the data set on Staphylococcus aureus it was 12 mm.
Take `Nc1ncnc2nc(-c3ccc(Cl)cc3)cc(-c3c(-c4ccccc4)[nH]c4ccc(Cl)cc34)c12`: the zone of inhibition at 500 µg/mL is 10 mm in the data set on Klebsiella pneumoniae; 12 mm in the data set with Aspergillus flavus; 8 mm in the data set with Aspergillus oryzae; 8 mm in the data set on Aspergillus niger; 8 mm in the data set on Aspergillus terreus; 11 mm with Escherichia coli. Moreover, the zone of inhibition at 500 µg/mL in the data set with Pseudomonas aeruginosa came out at 11 mm; in the data set with Staphylococcus aureus, 12 mm.
As for `Cc1ccc(-c2cc(-c3c(-c4ccccc4)[nH]c4ccccc34)c3c(N)ncnc3n2)cc1`, the zone of inhibition at 500 µg/mL in the data set with Klebsiella pneumoniae was determined as 11 mm; in the data set on Aspergillus flavus, 8 mm; with Aspergillus oryzae, 10 mm; in the data set on Aspergillus niger, 10 mm; with Aspergillus terreus, 8 mm; in the data set on Escherichia coli it was 10 mm. Besides, the values for the zone of inhibition at 500 µg/mL in the data set with Pseudomonas aeruginosa and with Staphylococcus aureus were 10 mm and 11 mm, respectively.
In the case of `Nc1ncnc2nc(-c3ccccc3)cc(-c3c(-c4ccccc4)[nH]c4ccccc34)c12`, the zone of inhibition at 500 µg/mL turned out to be 10 mm in the data set with Klebsiella pneumoniae; 10 mm in the data set on Aspergillus flavus; 9 mm in the data set on Aspergillus oryzae; 10 mm in the data set with Aspergillus niger; 5 mm in the data set on Aspergillus terreus; 5 mm in the data set on Escherichia coli. In addition, the zone of inhibition at 500 µg/mL in the data set with Pseudomonas aeruginosa turned out to be 9 mm; in the data set on Staphylococcus aureus, 10 mm.
Take `O=c1[nH]cnc2nc(-c3ccc(Cl)cc3)cc(-c3c(-c4ccccc4)[nH]c4ccc(Cl)cc34)c12`: the zone of inhibition at 500 µg/mL in the data set with Klebsiella pneumoniae stood at 11 mm; in the data set on Aspergillus flavus, 3 mm; with Aspergillus oryzae it was 14 mm; with Aspergillus niger it was 10 mm; in the data set on Aspergillus terreus it was 8 mm; in the data set with Escherichia coli, 11 mm. Further, the zone of inhibition at 500 µg/mL in the data set with Pseudomonas aeruginosa came out at 13 mm; with Staphylococcus aureus, 11 mm. Besides, the “inhibition (INH)” value in data set [1] was “Active”.
Regarding `OC(Cn1cncn1)(Cn1cncn1)c1ccc(F)cc1F` [FLUCONAZOLE], the zone of inhibition at 500 µg/mL with Aspergillus flavus, with Aspergillus oryzae, in the data set on Aspergillus niger and in the data set on Aspergillus terreus was 14 mm in each case.
Consider `Cc1ccc2[nH]c(-c3ccccc3)c(-c3cc(-c4ccc(Cl)cc4)nc4[nH]nc(N)c34)c2c1`, for which the zone of inhibition at 500 µg/mL in the data set with Klebsiella pneumoniae was 10 mm; in the data set on Aspergillus flavus, 11 mm; in the data set on Aspergillus oryzae it was 8 mm; with Aspergillus niger, 10 mm; in the data set with Aspergillus terreus, 2 mm; in the data set with Escherichia coli it was 7 mm. The zone of inhibition at 500 µg/mL with Pseudomonas aeruginosa stood at 8 mm; in the data set on Staphylococcus aureus, 10 mm.
On to `Cc1ccc(-c2cc(-c3c(-c4ccccc4)[nH]c4ccc(C)cc34)c3c(N)ncnc3n2)cc1`, for which the zone of inhibition at 500 µg/mL in the data set on Klebsiella pneumoniae was found to be 6 mm; in the data set on Aspergillus flavus, 5 mm; in the data set with Aspergillus oryzae it was 8 mm; in the data set with Aspergillus niger, 10 mm; with Aspergillus terreus, 5 mm; with Escherichia coli it was 5 mm. The zone of inhibition at 500 µg/mL was determined as 5 mm in the data set on Pseudomonas aeruginosa and 10 mm in the data set on Staphylococcus aureus.
`Cc1ccc2[nH]c(-c3ccccc3)c(-c3cc(-c4ccccc4)nc4ncnc(N)c34)c2c1`: the zone of inhibition at 500 µg/mL in the data set on Klebsiella pneumoniae is 6 mm; with Aspergillus flavus it was 11 mm; in the data set on Aspergillus oryzae, 6 mm; in the data set with Aspergillus niger, 8 mm; with Aspergillus terreus it was 10 mm; in the data set with Escherichia coli it was 8 mm. Besides, the zone of inhibition at 500 µg/mL in the data set on Pseudomonas aeruginosa stood at 5 mm; with Staphylococcus aureus it was 10 mm.
`CN[C@@H]1[C@H](O[C@H]2[C@H](O[C@H]3[C@H](O)[C@@H](O)[C@H](N=C(N)N)[C@@H](O)[C@@H]3N=C(N)N)O[C@@H](C)[C@]2(O)C=O)O[C@@H](CO)[C@H](O)[C@H]1O` [STREPTOMYCIN]: the zone of inhibition at 500 µg/mL with Klebsiella pneumoniae, in the data set on Escherichia coli, with Pseudomonas aeruginosa and in the data set on Staphylococcus aureus was 13 mm throughout.

For the origin of these results see ChEMBL document CHEMBL3045544, “Synthesis, antimicrobial and antioxidant activities of some new indole derivatives containing pyridopyrimidine and pyrazolopyridine moieties” (Med Chem Res, 2013).
